Data taken from patent US12365667B2, “Sulfone pyridine alkyl amide-substituted heteroaryl compounds” (BRISTOL-MYERS SQUIBB COMPANY, priority 2017, dated 2025).

test system: IFNα-induced STAT phosphorylation (pSTAT5) in human whole blood; test: IFNα-Induced STAT Phosphorylation in Human Whole Blood; type: cell-based; conditions: 1 h incubation with compound, 1000 U/mL recombinant human IFNα A/D for 15 min, pSTAT5 in CD3 positive population, read-out: IFNα-Induced Stat Phosph. (IC50)
Description: IFNα-Induced STAT Phosphorylation in Human Whole Blood
After an hour long incubation with compound, human whole blood (drawn with either EDTA or ACD-A as anti-coagulant) was stimulated with 1000 U/mL recombinant human IFNα A/D (R&D Systems 11200-2) for 15 min. The stimulation was stopped by adding Fix/Lyse buffer (BD 558049). Cells were stained with a CD3 FITC antibody (BD 555916), washed, and permeabilized on ice using Perm III buffer (BD 558050). Cells were then stained with an Alexa-Fluor 647 pSTAT5 (pY694) antibody (BD 612599) for 30 min prior to analysis on the FACS Canto II. The amount of pSTAT5 expression was quantitated by median fluorescence intensity after gating on the CD3 positive population.

SMILES | IC50 [nM]
CNC(=O)c1nnc(NC(=O)C2CC(F)C2)cc1Nc1ncccc1S(C)(=O)=O (single isomer, unassigned) [Example 125] | 272
CNC(=O)c1nnc(NC(=O)C2CC(F)C2)cc1Nc1ncccc1S(C)(=O)=O (single isomer, unassigned) [Example 126] | 343
CNC(=O)c1nnc(Nc2ccc(OC)cn2)cc1Nc1ncccc1S(C)(=O)=O [Example 2] | 26
CNC(=O)c1nnc(Nc2cc(F)ccn2)cc1Nc1ncccc1S(C)(=O)=O [Example 4] | 32
CNC(=O)c1nnc(Nc2cccc(F)n2)cc1Nc1ncccc1S(C)(=O)=O [Example 5] | 13
CNC(=O)c1nnc(Nc2ccc(OC)nn2)cc1Nc1ncccc1S(C)(=O)=O [Example 7] | 42
CCC(=O)Nc1cc(Nc2ncccc2S(C)(=O)=O)c(C(=O)NC)nn1 [Example 8] | 49
CNC(=O)c1nnc(NC(=O)C2CCC2)cc1Nc1ncccc1S(C)(=O)=O [Example 9] | 77
CNC(=O)c1nnc(Nc2ccc(C)cn2)cc1Nc1ncccc1S(C)(=O)=O [Example 10] | 21
CNC(=O)c1nnc(Nc2cc(C#N)n(C)n2)cc1Nc1ncccc1S(C)(=O)=O [Example 12] | 38
CNC(=O)c1nnc(Nc2cc(C3CC3)ncn2)cc1Nc1ncccc1S(C)(=O)=O [Example 14] | 11
CNC(=O)c1nnc(Nc2ccc(C3CC3)nn2)cc1Nc1ncccc1S(C)(=O)=O [Example 15] | 13
CNC(=O)c1nnc(Nc2ccc(F)nc2)cc1Nc1ncccc1S(C)(=O)=O [Example 16] | 1430
CNC(=O)c1nnc(Nc2cc(C)n(C)n2)cc1Nc1ncccc1S(C)(=O)=O [Example 17] | 18
CNC(=O)c1nnc(Nc2ccc(C(F)(F)F)nn2)cc1Nc1ncccc1S(C)(=O)=O [Example 19] | 44
CNC(=O)c1nnc(Nc2ccn(CC(F)F)n2)cc1Nc1ncccc1S(C)(=O)=O [Example 20] | 47
CNC(=O)c1nnc(Nc2ccnc(OC)n2)cc1Nc1ncccc1S(C)(=O)=O [Example 21] | 37
CNC(=O)c1nnc(Nc2cc(C(C)(C)O)c(F)cn2)cc1Nc1ncccc1S(C)(=O)=O [Example 22] | 31
CNC(=O)c1nnc(NC2CC2)cc1Nc1ncccc1S(C)(=O)=O [Example 23] | 2140
CNC(=O)c1nnc(Nc2ccc(C(C)(C)N)cn2)cc1Nc1ncccc1S(C)(=O)=O [Example 24] | 9
CNC(=O)c1nnc(Nc2ccc(C(C)(C)NC(C)=O)cn2)cc1Nc1ncccc1S(C)(=O)=O [Example 25] | 15
CNC(=O)c1nnc(Nc2ccn(CC(F)(F)F)n2)cc1Nc1ncccc1S(C)(=O)=O [Example 26] | 49

SMILES | IC50 [nM]
CNC(=O)c1nnc(Nc2cc(C(F)(F)F)ncn2)cc1Nc1ncccc1S(C)(=O)=O [Example 27] | 88
CNC(=O)c1nnc(Nc2ccc(OC)nn2)cc1Nc1ncccc1S(C)(=O)=O [Example 28] | 28
CNC(=O)c1nnc(Nc2cc(C(C)(C)O)c(Cl)cn2)cc1Nc1ncccc1S(C)(=O)=O [Example 29] | 92
CNC(=O)c1nnc(Nc2cc3ccc(C(C)(C)O)cc3cn2)cc1Nc1ncccc1S(C)(=O)=O [Example 30] | 57
CNC(=O)c1nnc(Nc2cc(C(F)(F)F)c(C(C)(C)O)cn2)cc1Nc1ncccc1S(C)(=O)=O [Example 31] | 31
CNC(=O)c1nnc(Nc2ccc(C3(C#N)CC3)cn2)cc1Nc1ncccc1S(C)(=O)=O [Example 33] | 18
CNC(=O)c1nnc(Nc2cc(N(C)C)ncn2)cc1Nc1ncccc1S(C)(=O)=O [Example 34] | 115
CNC(=O)c1nnc(Nc2cc(N3CCC3)ncn2)cc1Nc1ncccc1S(C)(=O)=O [Example 35] | 90
CNC(=O)c1nnc(Nc2cc(OC)c(C(C)(C)O)cn2)cc1Nc1ncccc1S(C)(=O)=O [Example 36] | 22
CNC(=O)c1nnc(Nc2cnc(C3CC3)cn2)cc1Nc1ncccc1S(C)(=O)=O [Example 37] | 26
CNC(=O)c1nnc(Nc2ccc(N(C)C)nn2)cc1Nc1ncccc1S(C)(=O)=O [Example 38] | 18
CCc1cnc(Nc2cc(Nc3ncccc3S(C)(=O)=O)c(C(=O)NC)nn2)cn1 [Example 39] | 15
CNC(=O)c1nnc(Nc2ccnc(C3CC3)n2)cc1Nc1ncccc1S(C)(=O)=O [Example 40] | 18
CNC(=O)c1nnc(Nc2cc(C3CC3)nc(COC)n2)cc1Nc1ncccc1S(C)(=O)=O [Example 41] | 24
CNC(=O)c1nnc(Nc2cnc(COC)cn2)cc1Nc1ncccc1S(C)(=O)=O [Example 42] | 15
CNC(=O)c1nnc(NC(=O)[C@@H]2C[C@H]2F)cc1Nc1ncccc1S(C)(=O)=O [Example 43] | 26
CNC(=O)c1nnc(NC(=O)[C@@H]2C[C@@H]2F)cc1Nc1ncccc1S(C)(=O)=O [Example 44] | 14
CNC(=O)c1nnc(NC(=O)C2CC2(F)F)cc1Nc1ncccc1S(C)(=O)=O (stereo not drawn) [Example 45] | 34
CNC(=O)c1nnc(NC(=O)[C@@H]2C[C@H]2C)cc1Nc1ncccc1S(C)(=O)=O [Example 46] | 53
CNC(=O)c1nnc(NC(=O)C2CC23CC3)cc1Nc1ncccc1S(C)(=O)=O (stereo not drawn) [Example 47] | 48
CNC(=O)c1nnc(NC(=O)[C@@H]2C[C@@H]2C)cc1Nc1ncccc1S(C)(=O)=O [Example 48] | 40
CNC(=O)c1nnc(NC(=O)[C@H]2C[C@@H]2C)cc1Nc1ncccc1S(C)(=O)=O [Example 49] | 58

SMILES | IC50 [nM]
CNC(=O)c1nnc(Nc2cc(C(F)(F)F)c(C(=O)N(C)C)cn2)cc1Nc1ncccc1S(C)(=O)=O [Example 50] | 30
CNC(=O)c1nnc(Nc2cnn(C)n2)cc1Nc1ncccc1S(C)(=O)=O [Example 51] | 29
CNC(=O)c1nnc(Nc2cc(C(F)(F)F)c(C(=O)N(C)C3CC3)cn2)cc1Nc1ncccc1S(C)(=O)=O [Example 52] | 92
CNC(=O)c1nnc(Nc2cn(C)nn2)cc1Nc1ncccc1S(C)(=O)=O [Example 53] | 132
CNC(=O)c1nnc(Nc2cn(C3CC3)nn2)cc1Nc1ncccc1S(C)(=O)=O [Example 56] | 18
CCCn1cc(Nc2cc(Nc3ncccc3S(C)(=O)=O)c(C(=O)NC)nn2)nn1 [Example 57] | 59
CNC(=O)c1nnc(Nc2cc(C)on2)cc1Nc1ncccc1S(C)(=O)=O [Example 58] | 24
CNC(=O)c1nnc(Nc2cc(C3CC3)c(C#N)cn2)cc1Nc1ncccc1S(C)(=O)=O [Example 59] | 219
CNC(=O)c1nnc(Nc2cc(C)nc(C3CC3)n2)cc1Nc1ncccc1S(C)(=O)=O [Example 61] | 18
CNC(=O)c1nnc(Nc2ccc(OC3CCOC3)nn2)cc1Nc1ncccc1S(C)(=O)=O (stereo not drawn) [Example 63] | 13
CNC(=O)c1nnc(Nc2ccc(OCCOC)nn2)cc1Nc1ncccc1S(C)(=O)=O [Example 64] | 79
CNC(=O)c1nnc(Nc2ccc(C(C)(C)NC(=O)CN)nn2)cc1Nc1ncccc1S(C)(=O)=O [Example 65] | 193
CNC(=O)c1nnc(NC(=O)C2Cc3ccccc32)cc1Nc1ncccc1S(C)(=O)=O (stereo not drawn) [Example 66] | 1240
CNC(=O)c1nnc(Nc2ccc(C(C)(C)OC(=O)CN)cn2)cc1Nc1ncccc1S(C)(=O)=O [Example 67] | 3580
CNC(=O)c1nnc(Nc2cc(C(C)(C)NC(C)=O)ccn2)cc1Nc1ncccc1S(C)(=O)=O [Example 70] | 1100
CNC(=O)c1nnc(Nc2cc(C(C)(C)NC(C)C)ccn2)cc1Nc1ncccc1S(C)(=O)=O [Example 72] | 23
CNC(=O)c1nnc(Nc2cc(C(C)(C)N(C)C)ccn2)cc1Nc1ncccc1S(C)(=O)=O [Example 73] | 76
CNC(=O)c1nnc(Nc2ccc(C(C)(C)NC(=O)OC)cn2)cc1Nc1ncccc1S(C)(=O)=O [Example 74] | 4
CNC(=O)c1nnc(Nc2ccc(C(C)(C)N3CCOC3=O)cn2)cc1Nc1ncccc1S(C)(=O)=O [Example 75] | 18
CNC(=O)c1nnc(Nc2ccc(C(C)(C)N3CCCC3=O)cn2)cc1Nc1ncccc1S(C)(=O)=O [Example 76] | 20
CNC(=O)c1nnc(Nc2ccc(OCC(C)(C)O)cn2)cc1Nc1ncccc1S(C)(=O)=O [Example 77] | 398
CNC(=O)c1nnc(Nc2ccc(C(C)(C)NC(=O)OC(C)C)cn2)cc1Nc1ncccc1S(C)(=O)=O [Example 78] | 40

same assay, conditions: Homo sapiens, 1 h incubation with compound, 1000 U/mL recombinant human IFNα A/D for 15 min, pSTAT5 in CD3 positive population, read-out: IFNα-Induced Stat Phosph. (IC50)

SMILES | IC50 [nM]
[2H]C([2H])([2H])NC(=O)c1nnc(Nc2ccc(F)cn2)cc1Nc1ncccc1S(C)(=O)=O [Example 1, 6-((5-fluoropyridin-2-yl)amino)-N-(methyl-d3)-4-((3-(methylsulfonyl)pyridin-2-yl)amino)pyridazine-3-carboxamide] | 12
[2H]C([2H])([2H])NC(=O)c1nnc(Nc2ccc(C(C)(C)O)cn2)cc1Nc1ncccc1S(C)(=O)=O [Example 13, 6-((5-(2-hydroxypropan-2-yl)pyridin-2-yl)amino)-N-(methyl-d3)-4-((3-(methylsulfonyl)pyridin-2-yl)amino)pyridazine-3-carboxamide] | 2
[2H]C([2H])([2H])NC(=O)c1nnc(Nc2ccc(CNC(C)=O)cn2)cc1Nc1ncccc1S(C)(=O)=O [Example 69, 6-((5-(acetamidomethyl)pyridin-2-yl)amino)-N-(methyl-d3)-4-((3-(methylsulfonyl)pyridin-2-yl)amino)pyridazine-3-carboxamide] | 12
